Source: US20240398740A1, “THERAPEUTIC COMPOSITION, METHODS, AND USES FOR THE CONTROL OF SEIZURES” (priority 2022, published 2024)
“Also recorded” adds a separate entry of the source. Like-named read-outs stand apart in the source and are kept apart here.

Assays:
bicuculline spiking = assay: acute bicuculline seizure focus model in nonhuman primates (surface EEG); assay type: in vivo, Macaca nemestrina; conditions: for block of bicuculline spiking by comparator drugs: IV administration (FIG. 13); for effect on bicuculline spiking after oral dose: 10 mg/kg
[1] = in vivo
4-AP bursting = 4-AP bursting in primate neocortical seizure model; assay type: in vivo; conditions: Keppra 2×40 mg/kg
ADs and hand-twitching = assay: stimulation-evoked afterdischarges (ADs) and hand-twitching in primate model; conditions: in vivo
Protocol: Stimulation-evoked […] evoked by a 4 sec train of 60 Hz biphasic pulses at 4-20 mA using a bipolar stimulating electrode (5 mm interelectrode distance) powered by a constant current source (Ojemann Cortical Stimulator, Integra Life Sciences Corporation, NJ, U.S.A.) placed on the sensory cortex, or by passing current between two of the three surface electrodes. The AD threshold was determined by stimulating at the lowest level that reliably triggered AD activity three times in a row and thresholds remained constant throughout recordings. AD activity was reliably elicited on the sensory cortex during the same experiments in which a bicuculline focus was created on the motor cortex. […] The brain is electrically stimulated for 4 seconds at varying current magnitudes until the “after discharge threshold” is determined: the magnitude of stimulation current that is just sufficient to elicit ADs. The stimulation artifacts are shown in the top lefthand trace, denoted by stars (*). The ADs are shown by orange bars. One can see that, in this case, 7 mA was not sufficient for eliciting ADs, but 8 mA reliably generated ADs. […] In this way, changes in the effect of a treatment on this type of electrical stimulation-evoked epileptiform activity can be quantified by measuring changes in the AD-threshold. From Haglund and Hochman, 2007.

fear-potentiated startle = assay: rat fear-potentiated startle (FPS) model of conditioned anxiety; assay type: in vivo, Long-Evans rats; conditions: 35 mg/kg IV
[2] = repeated dosing in healthy adult subjects: BUN, creatinine, serum chloride, urine specific gravity as signs of diuresis; assay type: in vivo, humans; conditions: healthy adults, eight capsules of 16 mg every 24 hours, day 1 to day 8
Protocol: Pharmacokinetic (PK) blood samples were collected and analyzed pre-dosing to establish baseline levels. Analysis was also done on day1, day 3, day 4, day 5, day 6, day 7, and day 8 following dosing. The samples were analysed for BUN (blood urea nitrogen), creatinine, serum chloride, and urine specific gravity. Diuresis is indicated by an out of proportion increase in serum BUN compared to creatinine (BUN increase out of proportion to creatinine), a decrease in urine specific gravity, and an increase in serum chloride. […] The grey horizontal lines in FIGS. 28-29 are indicative of an upper and a lower range for accepted normal values. The control-subject (placebo) are indicated with white-and-black dashed lines and grey dots.

[3] = first-pass metabolism and intramuscular absorption of Bumetanide Dibenzylamide; assay type: in vivo
Source text: Refinement opportunities may include extended or controlled release oral capsule or tablet or use of a transdermal formulation. Intramuscular data shown below supports the development of a potential transdermal therapy.

[4] = diuresis (urine production) in anesthetized, catheterized macaque monkeys
epileptiform activity = assay: primate neocortical seizure model; assay type: in vivo; conditions: Furosemide at 10 mg/kg IV, bumetanide at 2 mg/kg IV
Source text: The primate neocortical seizure model was used here for testing the effects of NKCC antagonists on epileptiform activity. This model and the techniques used to analyze the data was originally developed by Haglund and Hochman for the purpose of studying intrinsic optical signals in the human and primate brain, and how these signals could be used to map spread of seizure activity in the neocortex (Haglund et al. 1993, Haglund and Hochman, 2007). […] The afterdischarge protocol developed for human intraoperative studies as shown in the second figure below was also used in primate studies. As well, the physical properties of the optical signals from the brain generated by epileptiform activity (not shown here) (Haglund and Hochman, 2005, Haglund and Hochman 2007).

[5] = test system: maximal electroshock (MES) seizures; conditions: pharmacology review provided to the FDA; cited from earlier work
[6] = test system: maximal pentylenetetrazol (PTZ) seizures; conditions: pharmacology review provided to the FDA; cited from earlier work
[7] = test system: spontaneous interictal spiking; conditions: 20 mg IV furosemide; cited from earlier work
afterdischarge activity = conditions: cortical stimulation, human patient; cited from earlier work
[8] = PO gavage, CMC-water suspension, mol-Eq to 10 mg/kg bumetanide, bicuculline-generated spikes, pretreatment vs maximum change
[9] = PO, mol-Eq to 10 mg/kg bumetanide
[10] = PO, mol-Eq to 10 mg/kg bumetanide, interspike intervals
[11] = PO, 10 mg/kg bumetanide or mol-Eq

## CCCCNc1cc(C(=O)N2CCOCC2)cc(S(N)(=O)=O)c1Oc1ccccc1 [NPT 2024, Bumetanide Morpholino Amide]
Bicuculline spiking; [8]
  Average % change in spike size: 44%
Bicuculline spiking; [9]
  Time to 50% recovery for spike sizes: 110 min
  Time to 50% recovery of ISI: 180 min
Bicuculline spiking; [10]
  Average % change in ISI: 37.5%
Bicuculline spiking; n=4, FIG. 8
  interspike intervals compared with bumetanide parent: dramatic increase in interspike intervals
Bicuculline spiking; n=4, FIG. 9
  spikes per minute compared with bumetanide parent: dramatic decrease in spikes per minute
Bicuculline spiking; n=4, FIG. 10
  average spike height compared with bumetanide parent: dramatic decrease in the average spike height
[1]
  average rate of urine production after treatment: lower average rate of urine production compared to bumetanide
  percentage change in urine production over time: lower percentage change in urine production over time compared to bumetanide
  rate of urine production over time: lower rate of urine production over time compared to bumetanide

## O=C1NC(c2ccccc2)(c2ccccc2)C(=O)N1COP(=O)(O)O [Fosphenatoin]
Bicuculline spiking
  block of bicuculline spiking by comparator drugs: does not
4-AP bursting
  block of 4-AP bursting: block 4-AP bursting
ADs and hand-twitching
  block of ADs and hand-twitching: block ADs and hand-twitching

## CCCCNc1cc(C(=O)N(Cc2ccccc2)Cc2ccccc2)cc(S(N)(=O)=O)c1Oc1ccccc1 [NPT 2042, N, N-dibenzyl 3-aminosulfonyl-5-butylamino-4-phenoxybenzamide]
Bicuculline spiking; in vivo
  Average % change in ISI: 26%
  Average % change in spike size: 35.2%
  Time to 50% recovery for spike sizes: 160 min
  Time to 50% recovery of ISI: 126 min
  time postinjection of recovery to baseline pretreatment spiking: > 155 min
Bicuculline spiking; in vivo, iv, 2 mg/kg
  effect on bicuculline spiking after intravenous dose: near-complete blockade of the bicuculline spiking
  time postinjection of traces showing profound, nearly complete blockade of epileptiform activity: 72 min
Bicuculline spiking; in vivo, po
  effect on bicuculline spiking after oral dose: reduced spike height and frequency of bicuculline spiking; also recorded: transiently mediate a reduction in size and frequency of spiking
fear-potentiated startle
  anxiolytic effect in the FPS model: anxiolytic effect in the FPS model similar in magnitude to that elicited by equivalent (mg/kg) doses of bumetanide
[2]
  indication of diuresis (BUN, creatinine, serum chloride, urine specific gravity): no indication of diuresis
[3]; in vivo
  first-pass metabolism by the liver: susceptible to high first-pass metabolism by the liver
[3]; intramuscular
  absorption after intramuscular administration: can be absorbed through the microvessels of the muscle into the circulation
[1]
  average rate of urine production after treatment: lower average rate of urine production compared to bumetanide
  percentage change in urine production over time: lower percentage change in urine production over time compared to bumetanide
  rate of urine production over time: lower rate of urine production over time compared to bumetanide

## CCCCNc1cc(C(=O)N(CC)CC)cc(S(N)(=O)=O)c1Oc1ccccc1 [bumetanide diethylamide]
Bicuculline spiking; [8]
  Average % change in spike size: 40%
Bicuculline spiking; [9]
  Time to 50% recovery for spike sizes: 59 min
  Time to 50% recovery of ISI: 59 min
Bicuculline spiking; in vivo
  Average % change in ISI: 65%
[4]; FIG. 21, compared to bumetanide
  percentage change in urine production over time: lower percentage change in urine production over time compared to bumetanide
[4]; FIG. 22, compared to bumetanide
  rate of urine production over time: lower rate of urine production over time compared to bumetanide
[4]; FIG. 23, compared to bumetanide
  average rate of urine production after treatment: lower average rate of urine production compared to bumetanide

## CCCCNc1cc(C(=O)O)cc(S(N)(=O)=O)c1Oc1ccccc1 [Bumetanide, 3-(Aminosulfonyl)-5-(butylamino)-4-phenoxybenzoic acid, reference compound]
Bicuculline spiking
  block of bicuculline spiking by comparator drugs: block bicuculline spiking
Bicuculline spiking; listed as bumetanide
  block of bicuculline spiking by comparator drugs: suppress bicuculline spiking
Bicuculline spiking; IV, 2 mg/kg bumetanide or mol-Eq
  time postinjection of traces showing profound, nearly complete blockade of epileptiform activity: 81 min
Bicuculline spiking; IV, 2 mg/kg bumetanide or mol-Eq, in PEG-200
  effect on bicuculline spiking after intravenous dose: near-complete blockade of the bicuculline spiking
Bicuculline spiking; IV, 2 mg/kg bumetanide or mol-Eq, NPT 2042 experiment ended before recovery
  time postinjection of recovery to baseline pretreatment spiking: ~120 min
Bicuculline spiking; [8]
  Average % change in spike size: 23.7%
Bicuculline spiking; [11]
  effect on bicuculline spiking after oral dose: reduced spike height and frequency of bicuculline spiking; also recorded: transiently mediate a reduction in size and frequency of spiking
Bicuculline spiking; [9]
  Time to 50% recovery for spike sizes: 35 min
  Time to 50% recovery of ISI: 163 min
Bicuculline spiking; [10]
  Average % change in ISI: 68.7%
4-AP bursting
  block of 4-AP bursting: block 4-AP bursting
ADs and hand-twitching
  block of ADs and hand-twitching: block ADs and hand-twitching
Epileptiform activity
  anticonvulsant effect in primate seizure model: block seizures
[4]; [11]
  diuretic response: potent diuretic effect

## CCCC(C)C1(CC)C(=O)NC(=S)NC1=O (stereo not shown) [pentothal, sodium thiopental]
4-AP bursting
  block of 4-AP bursting: block 4-AP bursting

## CC[C@@H](C(N)=O)N1CCCC1=O [Keppra, Levetiracetam]
Bicuculline spiking
  block of bicuculline spiking by comparator drugs: block bicuculline spiking; also recorded: suppress bicuculline spiking
4-AP bursting
  block of 4-AP bursting: does NOT block 4-AP bursting
ADs and hand-twitching
  block of ADs and hand-twitching: does not
Epileptiform activity
  anticonvulsant effect in primate seizure model: clear anticonvulsant effect
[5]
  anticonvulsant activity in MES test: no anticonvulsant activity
[6]
  anticonvulsant activity in PTZ test: no anticonvulsant activity

## NS(=O)(=O)c1cc(C(=O)O)c(NCc2ccco2)cc1Cl [Furosemide, furosemide]
Epileptiform activity
  anticonvulsant effect in primate seizure model: block seizures
[7]
  effect on spontaneous interictal spiking: Blockade of Spontaneous Interictal Spiking
Afterdischarge activity
  afterdischarge activity after treatment: abruptly blocked
  afterdischarge threshold: increased the afterdischarge threshold
[4]; in vivo
  diuretic potency relative to bumetanide: about 1/10
